# Data reported in patent publication US12116359B2, “EBNA1 inhibitor crystalline forms, and methods of preparing and using same” (THE WISTAR INSTITUTE, priority 2018, dated 2024).
# “Also recorded” adds a separate entry of the source. Where two headings read alike, the source gives them in different places.
# Key:
# Assay type in all cases: physicochemical
# [1] = Further stability experiments on crystalline forms (vacuum drying, grinding, storage)
# Description: Further experiments were carried out, involving heating, vacuum drying and/or grinding the materials in order to assess the stability of the solvated materials and the potential crystallization of an anhydrous form by desolvation.
# [2] = Storage stability of solid forms at elevated temperature/humidity (XRPD, HPLC purity)
# Description: Purity analysis was performed on an Agilent HP1100 series system equipped with a diode array detector and using ChemStation software vB.04.03 using the method detailed in Table 1.
# Amorphous (I) free acid was stored at 40° C./75% RH (open vial), 25° C./97% RH (open vial) and 60° C. (closed vial, ambient humidity) for 8 weeks.
# Characterization by XRPD, ^1H NMR, TGA, DSC and storage at 40° C./75% RH for one week was carried out. Details are found in Table 10.
# [3] = Preliminary solubility assessment in solvents; settings: RT
# Description: Amorphous (I) free acid (post washing, ca. 20 mg) was dissolved or suspended in a range of solvent systems (using 10 or 20 volumes) at RT. Solutions were placed in a fridge at 4° C. overnight. If no solid was obtained, the solution was then allowed to evaporate at RT. Suspensions were matured between RT-50° C. heat-cool cycles (8 h per cycle) for up to 7 days. Solids were analyzed by XRPD.
# [4] = Gravimetric vapour sorption (GVS); settings: for Hygroscopicity: GVS, 0-90% RH
# Description: Sorption isotherms were obtained using a SMS DVS Intrinsic moisture sorption analyzer, controlled by DVS Intrinsic Control software. The sample temperature was maintained at 25° C. by instrument controls. The humidity was controlled by mixing streams of dry and wet nitrogen, with a total flow rate of 200 ml/min. The relative humidity was measured by a calibrated Rotronic probe (dynamic range of 1.0-100% RH), located near the sample. The weight change (mass relaxation) of the sample as a function of % RH was constantly monitored by the microbalance (accuracy ±0.005 mg). Typically 5-20 mg of sample was placed in a tared mesh stainless steel basket under ambient conditions. The sample was loaded and unloaded at 40% RH and 25° C. (typical room conditions). A moisture sorption isotherm was performed as outlined below (2 scans giving 1 complete cycle). The standard isotherm was performed at 25° C. at 10% RH intervals over a 0-90% RH range. Data analysis was carried out using Microsoft Excel. The sample was recovered after completion of the isotherm and re-analyzed by XRPD.
# [5] = Storage stability of solid forms at elevated temperature/humidity (XRPD, HPLC purity); settings: 4 weeks
compound,measurement,setting,value
"O=C(O)c1cccc(C#Cc2ccc(COC3CCOCC3)cc2)c1-c1ccc2cc[nH]c2c1 [Pattern 2, 2-(1H-Indol-6-yl)-3-[4-(tetrahydro-pyran-4-yloxymethyl)-phenylethynyl]-benzoic acid]",Grinding and vacuum drying at 55° C.: solvent content,"[1]; 1H NMR, 0.5 eq. toluene as prepared",0.3 eq. toluene
same,Grinding and vacuum drying at 55° C.: crystallinity,[1]; XRPD,significant loss of crystallinity; also recorded: Lower crystallinity
same,Vacuum drying 40° C. or 55° C.,[1]; solid form and solvent content by XRPD or 1H NMR,Unchanged by XRPD
"O=C(O)c1cccc(C#Cc2ccc(COC3CCOCC3)cc2)c1-c1ccc2cc[nH]c2c1 [Pattern 4, 2-(1H-Indol-6-yl)-3-[4-(tetrahydro-pyran-4-yloxymethyl)-phenylethynyl]-benzoic acid]",Storage at 40° C./75% RH for 7 days,"[2]; 40° C./75% RH, 7 days, solid form by XRPD",Unchanged
"O=C(O)c1cccc(C#Cc2ccc(COC3CCOCC3)cc2)c1-c1ccc2cc[nH]c2c1 [Amorphous (I) free acid, 2-(1H-Indol-6-yl)-3-[4-(tetrahydro-pyran-4-yloxymethyl)-phenylethynyl]-benzoic acid]",solubility,"[3]; 1,4-dioxane, organic solvent or mixture, thermodynamic from solid, 1,4-Dioxane, 10 vol, read-out: Solubility assessment 10 vol",> 100 mg/mL
same,solubility,"[3]; 2-propanol, organic solvent or mixture, thermodynamic from solid, 2-Propanol, 10 vol, read-out: Solubility assessment 10 vol",> 100 mg/mL
same,solubility,"[3]; acetone, organic solvent or mixture, thermodynamic from solid, Acetone, 10 vol, read-out: Solubility assessment 10 vol",> 100 mg/mL
same,solubility,"[3]; acetone/5% water, organic solvent or mixture, thermodynamic from solid, Acetone/5% water, 10 vol, read-out: Solubility assessment 10 vol",> 100 mg/mL
same,solubility,"[3]; acetonitrile, organic solvent or mixture, thermodynamic from solid, Acetonitrile, 10 vol, read-out: Solubility assessment 10 vol",> 100 mg/mL
same,solubility,"[3]; anisole, organic solvent or mixture, thermodynamic from solid, Anisole, 10 vol, read-out: Solubility assessment 10 vol",> 100 mg/mL
same,solubility,"[3]; dichloromethane, organic solvent or mixture, thermodynamic from solid, Dichloromethane, 10 vol, read-out: Solubility assessment 10 vol",> 100 mg/mL
same,solubility,"[3]; ethanol, organic solvent or mixture, thermodynamic from solid, Ethanol, 10 vol, read-out: Solubility assessment 10 vol",> 100 mg/mL
same,solubility,"[3]; ethanol/5% water, organic solvent or mixture, thermodynamic from solid, Ethanol/5% water, 10 vol, read-out: Solubility assessment 10 vol",> 100 mg/mL
same,solubility,"[3]; ethyl acetate, organic solvent or mixture, thermodynamic from solid, Ethyl Acetate, 10 vol, read-out: Solubility assessment 10 vol",> 100 mg/mL
same,solubility,"[3]; heptane, organic solvent or mixture, thermodynamic from solid, Heptane, 10 vol, read-out: Solubility assessment 10 vol",< 100 mg/mL
same,solubility,"[3]; heptane, organic solvent or mixture, thermodynamic from solid, Heptane, 20 vol, read-out: Solubility assessment 20 vol",< 50 mg/mL
same,solubility,"[3]; methanol, organic solvent or mixture, thermodynamic from solid, Methanol, 10 vol, read-out: Solubility assessment 10 vol",> 100 mg/mL
same,solubility,"[3]; methylethyl ketone, organic solvent or mixture, thermodynamic from solid, Methylethyl Ketone, 10 vol, read-out: Solubility assessment 10 vol",> 100 mg/mL
same,solubility,"[3]; methylisobutyl ketone (printed Methylisoburyl Ketone), organic solvent or mixture, thermodynamic from solid, Methylisoburyl Ketone, 10 vol, read-out: Solubility assessment 10 vol",> 100 mg/mL
same,solubility,"[3]; nitromethane, organic solvent or mixture, thermodynamic from solid, Nitromethane, 10 vol, read-out: Solubility assessment 10 vol",< 100 mg/mL
same,solubility,"[3]; nitromethane, organic solvent or mixture, thermodynamic from solid, Nitromethane, 20 vol, read-out: Solubility assessment 20 vol",< 50 mg/mL
same,solubility,"[3]; tetrahydrofuran, organic solvent or mixture, thermodynamic from solid, Tetrahydrofuran, 10 vol, read-out: Solubility assessment 10 vol",> 100 mg/mL
same,solubility,"[3]; toluene, organic solvent or mixture, thermodynamic from solid, Toluene, 10 vol, read-out: Solubility assessment 10 vol",< 100 mg/mL
same,solubility,"[3]; toluene, organic solvent or mixture, thermodynamic from solid, Toluene, 20 vol, read-out: Solubility assessment 20 vol",< 50 mg/mL
same,solubility,"[3]; water, thermodynamic from solid, Water, 10 vol, read-out: Solubility assessment 10 vol",< 100 mg/mL
same,solubility,"[3]; water, thermodynamic from solid, Water, 20 vol, read-out: Solubility assessment 20 vol",< 50 mg/mL
same,Decrease in chemical purity after storage,"[2]; 25° C./97% RH, 8 weeks",4.0 % (AUC)
same,XRPD after storage at 25° C./97% RH for 8 weeks,"[2]; 25° C./97% RH, open vial, 8 weeks",completely amorphous trace by XRPD; also recorded: amorphous traces
same,Purity by HPLC after storage at 25° C./97% RH for 8 weeks,"[2]; 25° C./97% RH, open vial, 8 weeks, initial purity 95.5% (AUC)",91.5 % (AUC)
same,Purity by HPLC after storage at 25° C./97% RH for 8 weeks,"[2]; 25° C./97% RH, open vial, 8 weeks, initial purity 95.5% (AUC), listed as (I) free acid amorphous material",present. 91.5% (AUC) purity.
same,Decrease in chemical purity after storage,"[2]; 40° C./75% RH, 8 weeks",2.0 % (AUC)
same,XRPD after storage at 40° C./75% RH for 8 weeks,"[2]; 40° C./75% RH, open vial, 8 weeks",unchanged by XRPD; also recorded: amorphous traces
same,Purity by HPLC after storage at 40° C./75% RH for 8 weeks,"[2]; 40° C./75% RH, open vial, 8 weeks, initial purity 95.5% (AUC)",93.5 % (AUC)
same,XRPD after storage at 40° C./75% RH for 8 weeks,"[2]; 40° C./75% RH, open vial, 8 weeks, listed as (I) free acid amorphous material",Unchanged by XRPD
same,Decrease in chemical purity after storage,"[2]; 60° C., 8 weeks",1.1 % (AUC)
same,XRPD after storage at 60° C. for 8 weeks,"[2]; 60° C., closed vial, ambient humidity, 8 weeks",unchanged by XRPD; also recorded: amorphous traces
same,Purity by HPLC after storage at 60° C. for 8 weeks,"[2]; 60° C., closed vial, ambient humidity, 8 weeks, initial purity 95.5% (AUC)",94.4 % (AUC)
same,XRPD after storage at 60° C. for 8 weeks,"[2]; 60° C., closed vial, ambient humidity, 8 weeks, listed as (I) free acid amorphous material",Unchanged by XRPD
same,Hygroscopicity,[4],hygroscopic
same,Hygroscopicity,[4]; listed as main batch,hygroscopic
same,XRPD after GVS,"[4]; after 0-90% RH isotherm, listed as (I) free acid amorphous material",0-90% RH with hysteresis. Unchanged by XRPD.
same,GVS moisture uptake,"[4]; between 0-90% RH, 25° C.",ca. 5.50%
same,GVS reversible moisture uptake,"[4]; between 0-90% RH, 25° C.",5.5% w/w reversible moisture uptake between
"O=C(O)c1cccc(C#Cc2ccc(COC3CCOCC3)cc2)c1-c1ccc2cc[nH]c2c1 [Pattern 1, 2-(1H-Indol-6-yl)-3-[4-(tetrahydro-pyran-4-yloxymethyl)-phenylethynyl]-benzoic acid]",XRPD after storage at 25° C./97% RH for 4 weeks,[5]; listed as Crystalline (I),remained unchanged by XRPD
same,XRPD after storage at 25° C./97% RH for 4 weeks,[5]; listed as crystalline batch,remained unchanged by XRPD
same,XRPD after storage at 40° C./75% RH for 4 weeks,[5]; listed as Crystalline (I),remained unchanged by XRPD
same,XRPD after storage at 40° C./75% RH for 4 weeks,[5]; listed as crystalline batch,remained unchanged by XRPD
same,XRPD after storage at 25° C./97% RH for 4 weeks,"[2]; 25° C./97% RH, 4 weeks",Unchanged by XRPD.
same,XRPD after storage at 40° C./75% RH for 4 weeks,"[2]; 40° C./75% RH, 4 weeks",Unchanged by XRPD.
"O=C(O)c1cccc(C#Cc2ccc(COC3CCOCC3)cc2)c1-c1ccc2cc[nH]c2c1 [Pattern 3, 2-(1H-Indol-6-yl)-3-[4-(tetrahydro-pyran-4-yloxymethyl)-phenylethynyl]-benzoic acid]",Storage at 40° C./75% RH for 3.5 days,"[1]; 40° C./75% RH, 3.5 days, XRPD and 1H NMR",Unchanged by
